Patent US10808007B2, “Desacetoxytubulysin H and analogs thereof” (WILLIAM MARSH RICE UNIVERSITY, priority 2015, dated 2020)
pIC50: −log10 of the molar value. Like-named read-outs stand apart in the source and are kept apart here.

Assays:
Assay type in all cases: cell-based
[1] = system: NCI-60 human cancer cell line panel; test: NCI-60 one-dose test; settings: one-dose test (10 μM), NCI-60 panel
Procedure: (§1) A number of the synthesized compounds (i.e. Tb1-Tb23) were evaluated for their activity against a variety of cancer cell lines, namely the NCI-60 human cancer cell line panel representing leukemia, melanoma, lung, colon, brain, ovary, breast, prostate and kidney types of cancer through the In Vitro Cell Line Screening Project (IVCLSP) of the National Cancer Institute (NCI), and a summary of the results is shown in Table 1. […] As there was interest in the activity in certain other cell lines, these and the remaining compounds (Tb1-Tb41, PTb-D42 and PTb-D43) were subjected to further testing against MES SA (uterine sarcoma cells), MES SA DX (multidrug resistant uterine sarcoma cells), and HEK 293T (human embryonic kidney cells). […] Tubulysins are known to be substrates for Pgp pumps (Xiangming, et al., 2013; Kaur, et al., 2006; Szakacs, et al., 2006) as supported by the observed low activities of all tubulysins tested except Tb28, Tb32 and Tb33.

[2] = system: MES SA (uterine sarcoma cells); test: Cytotoxic assay (CellTiter-Glo, 72 h), MES SA; settings: Homo sapiens, MES-SA, read-out: IC50 MES SA
[3] = system: MES SA DX (multidrug resistant uterine sarcoma cells); test: Cytotoxic assay (CellTiter-Glo, 72 h), MES SA DX; settings: Homo sapiens
[4] = system: HEK 293T (human embryonic kidney cells); test: Cytotoxic assay (CellTiter-Glo, 72 h), HEK 293T; settings: Homo sapiens, HEK-293T, read-out: IC50 HEK 293T
[5] = system: leukemia cancer cell lines; test: NCI-60 cytotoxicity, leukemia; settings: Homo sapiens
Procedure: as §1

[6] = system: non-small cell lung cancer cell lines; test: NCI-60 cytotoxicity, non-small cell lung cancer; settings: Homo sapiens
Procedure: as §1

[7] = system: colon cancer cell lines; test: NCI-60 cytotoxicity, colon cancer; settings: Homo sapiens
Procedure: as §1

[8] = system: CNS cancer cell lines; test: NCI-60 cytotoxicity, CNS cancer; settings: Homo sapiens
Procedure: as §1

[9] = system: melanoma cell lines; test: NCI-60 cytotoxicity, melanoma; settings: Homo sapiens
Procedure: as §1

[10] = system: ovarian cancer cell lines; test: NCI-60 cytotoxicity, ovarian cancer; settings: Homo sapiens
Procedure: as §1

[11] = system: renal cancer cell lines; test: NCI-60 cytotoxicity, renal cancer; settings: Homo sapiens
Procedure: as §1

[12] = system: prostate cancer cell lines; test: NCI-60 cytotoxicity, prostate cancer; settings: Homo sapiens
Procedure: as §1

[13] = system: breast cancer cell lines; test: NCI-60 cytotoxicity, breast cancer; settings: Homo sapiens
Procedure: as §1

| Structure (SMILES) | one dose, mean growth % [1] [%] | pIC50 ([2]; 72 h) | pIC50 [3] | pIC50 ([4]; 72 h) | GI50 ([5]; NCI-60, selected value) [nM] | GI50 ([6]; NCI-60, selected value) [nM] | GI50 ([7]; NCI-60, selected value) [nM] | GI50 ([8]; NCI-60, selected value) [nM] | GI50 ([9]; NCI-60, selected value) [nM] | GI50 ([10]; NCI-60, selected value) [nM] | GI50 ([11]; NCI-60, selected value) [nM] | GI50 ([12]; NCI-60, selected value) [nM] | GI50 ([13]; NCI-60, selected value) [nM] | also measured |
| --- | --- | --- | --- | --- | --- | --- | --- | --- | --- | --- | --- | --- | --- | --- |
| CCC(C)[C@H](NC(=O)c1ccccn1)C(=O)N(C)[C@H](C[C@@H](OC(C)=O)c1nc(C(=O)NC23C4C5C2C2C3C4C52C(=O)OC)cs1)C(C)C (stereo in doubt) [Tb12, Methyl 4-(2-((1R,3R)-1-acetoxy-3-((2S,3S)—N,3-dimethyl-2-(picolinamido)pentanamido)-4-methyl-pentyl)thiazole-4-carboxamido)cubane-1-carboxylate] | 84.90 | < 7.30 | < 7.30 | < 7.30 |  |  |  |  |  |  |  |  |  |  |
| CCC(C)[C@H](NC(=O)c1ccccn1)C(=O)N(C)[C@H](C[C@@H](OC(C)=O)c1nc(C(=O)NC23CC(C(=O)OC)(C2)C3)cs1)C(C)C (stereo in doubt) [Tb15, Methyl 3-(2-((1R,3R)-1-acetoxy-3-((2S,3S)—N,3-dimethyl-2-(picolinamido)pentanamido)-4-methyl-pentyl)thiazole-4-carboxamido)bicyclo[1.1.1]pentane-1-carboxylate] | 94.38 | < 7.30 | < 7.30 | < 7.30 |  |  |  |  |  |  |  |  |  |  |
| CCC(C)[C@H](NC(=O)CN(C)C)C(=O)N(C)[C@H](C(=O)NC12C3C4C1C1C2C3C41C(=O)N[C@@H](Cc1ccccc1)C[C@H](C)C(=O)OC)C(C)C (stereo in doubt) [Tb18, Methyl (2S,4R)-4-(4-((S)-2-((2S,3S)-2-(2-(dimethylamino)acetamido)-N,3-dimethylpentanamido)-3-methylbutanamido)cubane-1-carboxamido)-2-methyl-5-phenylpentanoate] | 98.48 | < 7.30 | < 7.30 | < 7.30 |  |  |  |  |  |  |  |  |  |  |
| CCC(C)[C@H](NC(=O)[C@H]1CCCCN1C)C(=O)N(C)[C@H](C(=O)NC12CC(C(=O)N[C@@H](Cc3ccccc3)C[C@H](C)C(=O)OC)(C1)C2)C(C)C (stereo in doubt) [Tb19, Methyl (2S,4R)-4-(3-((S)-2-((2S,3S)—N,3-dimethyl-2-((R)-1-methylpiperidine-2 carboxamido)pentan amido)-3-methylbutanamido)bicyclo[1.1.1]pentane-1-carboxamido)-2-methyl-5-phenylpentanoate] | 100.82 | < 7.30 | < 7.30 | < 7.30 |  |  |  |  |  |  |  |  |  |  |
| CC[C@@H](C)[C@H](NC(=O)CN(C)C)C(=O)N(C)[C@H](C[C@@H](OC(C)=O)c1nc(C(=O)NC23CC(C(=O)OC)(C2)C3)cs1)C(C)C [Tb16] |  | < 7.30 | < 7.30 | < 7.30 | 15.1 | 85 | 98.1 | 127 | 46.1 | 99.1 | 186 | 303 | 123 |  |
| CC[C@@H](C)[C@H](NC(=O)[C@H]1CCCCN1C)C(=O)N(C)[C@H](C(=O)NC12C3C4C1C1C2C3C41C(=O)N[C@@H](Cc1ccccc1)C[C@H](C)C(=O)OC)C(C)C (stereo partly drawn) [Tb17, Methyl (2S,4R)-4-(4-((S)-2-((2S,3S)—N,3-dimethyl-2-((R)-1-methylpiperidine-2-carboxamido)penta-namido)-3-methylbutanamido)cubane-1-carboxamido)-2-methyl-5-phenylpentanoate] | 97.37 | < 7.30 | < 7.30 | < 7.30 |  |  |  |  |  |  |  |  |  |  |
| COC(=O)[C@@H](C)C[C@H](Cc1ccccc1)NC(=O)c1csc([C@@H](C[C@H](C(C)C)N(C)C(=O)[C@@H](NC(=O)[C@H]2CCCCN2C)C2CC2)OC(C)=O)n1 [Tb20, Methyl (2S,4R)-4-(2-((1R,3R)-1-acetoxy-3-((S)-2-cyclopropyl-N-methyl-2-((R)-1-methylpiperidine-2-carboxamido)acetamido)-4-methylpentyl)thiazole-4-carboxamido)-2-methyl-5-phenylpentanoate] |  | 10.34 | > 6.70 | 10.33 |  |  | 0.263 | 0.345 | 0.035 |  |  | 0.211 |  | GI50 ([5]; NCI-60): 0.098 nM; GI50 ([6]; NCI-60): 0.247 nM; GI50 ([7]; NCI-60): 0.263 nM; GI50 ([8]; NCI-60): 0.345 nM; GI50 ([9]; NCI-60): 0.035 nM; GI50 ([10]; NCI-60): 0.049 nM; GI50 ([11]; NCI-60): 0.27 nM; GI50 ([12]; NCI-60): 0.211 nM; GI50 ([13]; NCI-60): 0.044 nM; pIC50 [2]: 10.34; pIC50 [4]: 10.33 |
| COC(=O)[C@@H](C)C[C@H](Cc1ccccc1)NC(=O)c1csc([C@@H](C[C@H](C(C)C)N(C)C(=O)[C@@H](NC(=O)CN(C)C)C2CC2)OC(C)=O)n1 [Tb21, Methyl (2S,4R)-4-(2-((6S,9R,11R)-6-cyclopropyl-9-isopropyl-2,8-dimethyl-4,7,13-trioxo-12-oxa-2,5,8-triazatetradecan-11-yl)thiazole-4-carboxamido)-2-methyl-5-phenylpentanoate] |  | 7.77 | < 7.30 | < 8.00 | 1.65 | 6.62 | 23.9 | 24.1 | 2.23 | 5.79 | 23.2 | 34.6 | 4.04 |  |
| COC(=O)[C@@H](C)C[C@H](Cc1ccccc1)NC(=O)c1csc([C@@H](C[C@H](C(C)C)N(C)C(=O)[C@@H](NC(=O)C23CC(NC(C)=O)(C2)C3)C2CC2)OC(C)=O)n1 [Tb22, Methyl (2S,4R)-4-(2-((1R,3R)-3-((S)-2-(3-acetamidobicyclo[1.1.1]pentane-1-carboxamido)-2-cyclopropyl-N-methylacetamido)-1-acetoxy-4-methylpentyl)thiazole-4-carboxamido)-2-methyl-5-phenylpentanoate] | 49.38 | < 7.30 | < 7.30 | < 7.30 |  |  |  |  |  |  |  |  |  |  |
| CNC12C3C4C1C1C2C3C41C(=O)N[C@H](C(=O)N(C)[C@H](C[C@@H](OC(C)=O)c1nc(C(=O)N[C@@H](Cc2ccccc2)C[C@H](C)C(=O)OC)cs1)C(C)C)C1CC1 (stereo partly drawn) [Tb23, Methyl (2S,4R)-4-(2-((1R,3R)-1-acetoxy-3-((S)-2-cyclopropyl-N-methyl-2-(4-(methylamino)cubane-1-carboxamido)acetamido)-4-methylpentyl)thiazole-4-carboxamido)-2-methyl-5-phenylpentanoate] |  | < 7.30 | < 7.30 | < 7.30 | 16.3 | 84.5 | 204 | 119 | 45.1 | 54.9 | 181 | 308 | 44.7 |  |
